Patent publication EP0280461A2, “Dobutamine salts” (ELI LILLY AND COMPANY, priority 1987, dated 1988)
Where a name gives a salt, the structure may show the parent alone.

Experiment: aqueous solubility at 25°C
Format: physicochemical
Settings: water

Row | solubility (room temperature (25°C)) [mg/mL] | SMILES | further results
1 | ~25 | CC(CCc1ccc(O)cc1)NCCc1ccc(O)c(O)c1 (racemic) [Dobutamine phosphate dibasic, dobutamine phosphate dibasic] | –
2 | – | CC(CCc1ccc(O)cc1)NCCc1ccc(O)c(O)c1 (racemic) [dobutamine phosphate monobasic] | solubility (at 25°C): ~2000 mg/mL
3 | – | CC(CCc1ccc(O)cc1)NCCc1ccc(O)c(O)c1 (stereo not shown) [dobutamine hydrobromide] | aqueous solubility (room temperature (25°C), hydrobromide): about 28 mg per ml of water
4 | 28 | CC(CCc1ccc(O)cc1)NCCc1ccc(O)c(O)c1 (stereo not shown) [dobutamine hydrochloride] | –
